Source: patent publication US20030059774A1, “Detection of CYP2C19 polymorphisms” (priority 2000, published 2003)

Test system: CYP2C19
Assay: Omeprazole metabolic ratio (MR) phenotyping of study subjects, correlated with CYP2C19 5' flanking region haplotypes
Assay type: in vivo, human
Conditions: for MR (Ome), predicted metabolic ratio: based on 144 samples; for MR-range (min-max): omeprazole 20 mg oral, 3 hours; for mr50 (metabolic ratio of the 50th percentile), mr(omeprazole): single oral dose 20 mg omeprazole, blood sample 3 hours after intake
Experimental: The study was performed in accordance with the principles stated in the Declaration of Helsinki as reviewed in Tokyo 1975 and Venice 1983, Hong Kong 1989 and Somerset West 1996. Subjects were preferably not related to each other. Based on questioning, individuals having one of the following were excluded: a medical condition judged to influence liver function or requiring pharmacological treatment; any on-going disease; intake of any drug, except oral contraceptives, during one week prior to the study; breast-feeding or pregnancy. No physical examination was performed. For these experiments, a single oral dose of 20 mg omeprazole (Losec, AstraZeneca) was given in the morning after an overnight fast. The bladder was emptied before drug intake. A single blood sample was collected 3 hours after drug intake.
In the first part of the study, approximately 90 samples (Swedish Caucasians) were selected as set forth in Table 1, on the basis of the following assumptions: if the distribution of an unknown polymorphism will be 25% for a homozygote, a sample size of approximately 40 “UEM” will be able to detect an increase in this specific genotype (homozygote) by 28% (α=5% (two-tailed), power=80%). If it is assumed that the distribution of an unknown polymorphism will be 10% for a homozygote, a sample size of approximately 40 “UEM” will be able to detect an increase in this specific genotype (homozygote) by 21% (α-5% (two-tailed), power=80%). The samples were selected with regard to their phenotyped metabolic ratios (MR) of omeprazole. Available genotype information for all samples was provided.
In the second part of the study, 71 samples with a more normal phenotypic distribution were used. Also, no exclusion of individuals with known defective alleles or duplications was done.
This analysis was performed using software based on maximum likelihood methodology and using the EM algorithm of Excoffier et al. (1995), Mol Biol Evol. 12:921-927. […] From the haplotype information two different kinds of variables were created: one variable was formed as a haplotype combination variable (HTYPE). This variable has the value H1/H2 when the subject has haplotypes 1 and 2, etc. Variables H1, H2, H3 and H4 are haplotype annotations that denote the number of copies of that particular haplotype for the subject, e.g., for a subject with haplotype H1/H2 the variables H1, H2, H3 and H4 will be 1, 1, 0 and 0, respectively. Each of these variables can thus take on the values 0, 1 or 2. Only the four most frequent haplotypes were considered when those variables were formed.

In the case of `COc1ccc2[nH]c([S+]([O-])Cc3ncc(C)c(OC)c3C)nc2c1` (stereo not drawn) [omeprazole], the “MR (Ome), predicted metabolic ratio” value (HTYPE H1/H1 (352 C, 1060 T), marker for EM) is reported as 0.2-0.8, the “MR-range (min-max)” value (HTYPE H1/H1, 63 subjects) is reported as 0.17-2.90 and the “MR (Ome), predicted metabolic ratio” value (HTYPE H1/H2 (352 C/T, 1060 T), marker for UEM & EM) is reported as less than 0.8. The “MR-range (min-max)” value (HTYPE H1/H2, 31 subjects) was 0.12-2.62, the “MR (Ome), predicted metabolic ratio” value (HTYPE H1/H3 (352 C, 1060 C/T), marker for EM &IM) was 0.4-7.0 and the “MR-range (min-max)” value (HTYPE H1/H3, 27 subjects) was 0.03-11.87. The “MR (Ome), predicted metabolic ratio” value (HTYPE H2/H2 (352 T, 1060 T), marker for UEM/EM) was less than 0.4, the “MR-range (min-max)” value (HTYPE H2/H2, 4 subjects) was 0.15-0.33 and the “MR (Ome), predicted metabolic ratio” value (HTYPE H2/H3 (352 C/T, 1060 C/T), marker for EM & (IM)) was 0.4-2.0. The “MR-range (min-max)” value (HTYPE H2/H3, 12 subjects) was 0.36-1.75, the “MR (Ome), predicted metabolic ratio” value (HTYPE H3/H3 (352 C, 1060 C), marker for PM) was greater than 7.0 and the “MR-range (min-max)” value (HTYPE H3/H3, 7 subjects) was 1.28-23.75. The “mr50 (metabolic ratio of the 50th percentile), mr(omeprazole)” value (haplotype H1/H1, n = 60) was “mr50 = 0.485”, the “mr50 (metabolic ratio of the 50th percentile), mr(omeprazole)” value (haplotype H1/—, n = 63) was “mr50 = 0.63” and the “mr50 (metabolic ratio of the 50th percentile), mr(omeprazole)” value (haplotype H2/H2, n = 4) was “mr50 = 0.25”. The “mr50 (metabolic ratio of the 50th percentile), mr(omeprazole)” value (haplotype H2/—, n = 44) was “mr50 = 0.485”, the “mr50 (metabolic ratio of the 50th percentile), mr(omeprazole)” value (haplotype H3/H3, n = 7) was “mr50 = 16.86” and the “mr50 (metabolic ratio of the 50th percentile), mr(omeprazole)” value (haplotype H3/—, n = 39) was “mr50 = 0.88”. For the same molecule, the “mr50 (metabolic ratio of the 50th percentile), mr(omeprazole)” value (haplotype H4/H4, n = 2) was “mr50 = 1.5”, the “mr50 (metabolic ratio of the 50th percentile), mr(omeprazole)” value (haplotype H4/—, n = 14) was “mr50 = 0.755” and the “mr50 (metabolic ratio of the 50th percentile), mr(omeprazole)” value (haplotype —/— (no copy of H1), n = 30) was “mr50 = 0.97”. The “mr50 (metabolic ratio of the 50th percentile), mr(omeprazole)” value (haplotype —/— (no copy of H2), n = 105) was “mr50 = 0.64”, the “mr50 (metabolic ratio of the 50th percentile), mr(omeprazole)” value (haplotype —/— (no copy of H3), n = 107) was “mr50 = 0.47” and the “mr50 (metabolic ratio of the 50th percentile), mr(omeprazole)” value (haplotype —/— (no copy of H4), n = 137) was “mr50 = 0.56”.
